Test results from US11274082B2, “Tead inhibitors and uses thereof” (Ikena Oncology, Inc., priority 2019, dated 2022).
Read-outs that look alike come from different tables or passages of the source.

Key:
[1] = test system: H226; assay: Anti-proliferation assay in H226 cells; assay type: cell-based; conditions: Homo sapiens
Description: (§1) Certain compounds were tested in TEAD reporter assay, and in H226 and H28. A: EC50<0.1 uM; B: 0.1 uM≤EC50≤0.5 uM; C: EC50>0.5 uM.
Individual cell lines were grown in medium according to supplier instructions and seeded into 96-well plates at a density that ensured logarithmic growth over 72 hours. TEAD inhibitor compounds were administered to cells at a top concentration of 10 μm and subsequently a 10 point 3-fold serial dilution was conducted. After 72 hours, proliferation was quantified using Cell TITERGLO™ (Promega, Inc.) and compared to vehicle control. IC50 and EC50 values were generated using XLFit curve fitting software.

[2] = test system: TEAD; assay: TEAD reporter assay (Hippo Pathway TEAD Reporter - MCF7 cell line, luciferase); assay type: cell-based; conditions: Homo sapiens
From the text: TEAD inhibition can be assayed using Hippo Pathway TEAD Reporter—MCF7 Cell Line (BPS Bioscience, Catalog #: 60618).
The TEAD Reporter—MCF7 cell line contains the firefly luciferase gene under the control of TEAD responsive elements stably integrated into the human breast cancer cell line, MCF7. Inside the cells, basal unphosphorylated YAP/TAZ remains in the nucleus and induces the constitutive expression of luciferase reporter. The cell line is validated for the inhibition of the expression of luciferase reporter by the activators of the Hippo pathway.
• 1) Harvest TEAD Reporter—MCF7 cells from culture in growth medium and seed cells at a density of 35,000 cells per well into white clear-bottom 96-well microplate in 45 μl of assay medium. • 2) Incubate cells at 37° C. in a CO2 incubator for overnight. • 3) Dilute the activators (H2O2 or okadaic acid) stock in assay medium. Add 5 μl of diluted activators to the wells. The final concentration of DMSO in assay medium is 0.1%. • 4) Add 5 μl of assay medium with same concentration of DMSO without activator to control wells. • 5) Add 50 μl of assay medium with DMSO to cell-free control wells (for determining background luminescence). • 6) Set up each treatment in at least triplicate. • 7) Incubate cells at 37° C. in a CO2 incubator for 5-6 hours. • 8) Perform luciferase assay using the ONE-Step™ Luciferase Assay System following the protocol provided: Add 100 μl of ONE-Step™ Luciferase reagent per well and rock at room temperature for ˜15 minutes. Measure luminescence using a luminometer. • 9) Data Analysis: Obtain the background-subtracted luminescence by subtracting the average background luminescence (cell-free control wells) from the luminescence reading of all wells.
as §1

[3] = NCI-H226, H226 cells, read-out: H226 EC50
[4] = TEAD Reporter - MCF7 cells, read-out: TEAD Reporter Assay EC50
[5] = NCI-H226, read-out: H226 EC50 (uM)
[6] = MCF7, read-out: TEAD Reporter Assay EC50 (uM)

Row | SMILES | EC50 [1, 3] | EC50 [2, 4] | EC50 [1, 5] | EC50 [2, 6]
1 | CNS(=O)(=O)c1ccc(Oc2cccc(C(F)(F)F)c2)c(-c2cn(C)cn2)c1 [I-22, Y-Methyl-3-(1-methyl-1H-imidazol-4-yl)-4-(3-(trifluoromethyl)phenoxy)benzenesulfonamide] | > 0.5 µM | > 0.5 µM | – | –
2 | CNS(=O)(=O)c1ccc(Oc2cccc(C(F)(F)F)c2)c(-c2nc(C)c[nH]2)c1 [I-25, N-Methyl-3-(4-methyl-1H-imidazol-2-yl)-4-[3-(trifluoromethyl)phenoxy]benzenesulfonamide] | – | > 0.5 µM | – | –
3 | CNS(=O)(=O)c1ccc(Oc2cccc(C(F)(F)F)c2)c(B(O)O)c1 [I-18, [5-(methylsulfamoyl)-2-[3-(trifluoromethyl)phenoxy]phenyl]boronic acid] | > 0.5 µM | – | – | –
4 | CNS(=O)(=O)c1ccc(Nc2cccc(C(F)(F)F)c2)c(C(=O)N(C)OC)c1 [I-21, N-methoxy-N-methyl-5-(methylsulfamoyl)-2-[3-(trifluoromethyl)anilino]benzamide] | > 0.5 µM | – | – | –
5 | CNS(=O)(=O)c1ccc(N[C@H](CO)c2ccccc2)c(-c2cn(C)cn2)c1 [I-40, 4-[[(1S)-2-Hydroxy-1-phenyl-ethyl]amino]-N-methyl-3-(1-methylimidazol-4-yl)benzenesulfonamide] | > 0.5 µM | > 0.5 µM | – | –
6 | CNS(=O)(=O)c1ccc(Oc2cccc(C(F)(F)F)c2)c(-c2cc(C)n[nH]2)c1 [I-20, N-methyl-3-(3-methyl-1H-pyrazol-5-yl)-4-[3-(trifluoromethyl)phenoxy]benzenesulfonamide] | > 0.5 µM | – | – | –
7 | CNS(=O)(=O)c1ccc(N[C@H]2CCc3ccccc32)c(-c2cn(C)cn2)c1 (single isomer, unassigned) [I-58] | > 0.5 µM | > 0.5 µM | – | –
8 | CNS(=O)(=O)c1ccc(Oc2cccc(C(F)(F)F)c2)c(C(N)=O)c1 [I-24] | > 0.5 µM | > 0.5 µM | – | –
9 | CNS(=O)(=O)c1ccc(Nc2cccc(C(F)(F)F)c2)c(C(C)=O)c1 [I-23, 3-acetyl-N-methyl-4-[3-(trifluoromethyl)anilino]benzenesulfonamide] | > 0.5 µM | > 0.5 µM | – | –
10 | CNS(=O)(=O)c1cnc(N[C@@H](C)c2ccccc2)c(-c2cn(C)cn2)c1 [I-34, N-Methyl-5-(1-methylimidazol-4-yl)-6-[[(1S)-1-phenylethyl]amino]pyridine-3-sulfonamide] | > 0.5 µM | > 0.5 µM | – | –
11 | CNS(=O)(=O)c1ccc(N[C@@H](C)c2ccccc2)c(-c2cn(C)cn2)c1 [I-28, N-Methyl-3-(1-methylimidazol-4-yl)-4-[[(1S)-1-phenylethyl]amino]benzenesulfonamide] | > 0.5 µM | > 0.5 µM | – | –
12 | CNS(=O)(=O)c1ccc(NCc2ccc3c(c2)OCO3)c(-c2cn(C)cn2)c1 [I-64, 4-(1,3-Benzodioxol-5-ylmethylamino)-N-methyl-3-(1-methylimidazol-4-yl)benzenesulfonamide] | 0.1 to 0.5 µM | 0.1 to 0.5 µM | – | –
13 | CC(C)NS(=O)(=O)c1ccc(NCc2ccccc2)c(-c2cn(C)cn2)c1 [I-46, 4-(Benzylamino)-N-isopropyl-3-(1-methylimidazol-4-yl) benzenesulfonamide] | – | – | 0.1 to 0.5 µM | > 0.5 µM
14 | CNS(=O)(=O)c1ccc(NC(=O)c2ccccc2)c(-c2cn(C)cn2)c1 [I-29, N-[2-(1-Methylimidazol-4-yl)-4-(methylsulfamoyl)phenyl]benzamide] | – | – | > 0.5 µM | > 0.5 µM
15 | CNS(=O)(=O)c1ccc(Oc2cccc(C(F)(F)F)c2)c(-c2cnc(C)[nH]2)c1 [I-19, N-Methyl-3-(2-methyl-1H-imidazol-5-yl)-4-[3-(trifluoromethyl)phenoxy]benzenesulfonamide] | > 0.5 µM | – | – | –

Continued, in another order:

Row | EC50 [1, 3] | EC50 [2, 4] | SMILES | EC50 [1, 5] | EC50 [2, 6]
16 | < 0.1 µM | 0.1 to 0.5 µM | CNS(=O)(=O)c1ccc(Nc2ccc(C3CC3)cn2)c(-c2cn(C)cn2)c1 [I-79, 4-[(5-Cyclopropyl-2-pyridyl)amino]-N-methyl-3-(1-methylimidazol-4-yl)benzenesulfonamide] | – | –
17 | 0.1 to 0.5 µM | 0.1 to 0.5 µM | CNS(=O)(=O)c1ccc(N[C@@H]2CCCc3ccccc32)c(-c2cn(C)cn2)c1 [I-47, N-Methyl-3-(1-methylimidazol-4-yl)-4-[[(1R)-tetralin-1-yl]amino]benzenesulfonamide] | – | –
18 | 0.1 to 0.5 µM | > 0.5 µM | Cn1cnc(-c2cc(S(N)(=O)=O)ccc2NCc2ccccc2)c1 [I-42, 4-(Benzylamino)-3-(1-methylimidazol-4-yl)benzenesulfonamide] | – | –
19 | < 0.1 µM | < 0.1 µM | CNS(=O)(=O)c1ccc(NCc2ccccc2C(F)(F)F)c(-c2cn(C)cn2)c1 [I-74, N-Methyl-3-(1-methylimidazol-4-yl)-4-[[2-(trifluoromethyl)phenyl]methylamino]benzenesulfonamide] | – | –
20 | < 0.1 µM | < 0.1 µM | CNS(=O)(=O)c1ccc(Nc2ccc(C(C)(C)C)cn2)c(-c2cn(C)cn2)c1 [I-80, 4-[(5-tert-Butyl-2-pyridyl)amino]-N-methyl-3-(1-methylimidazol-4-yl)benzenesulfonamide] | – | –
21 | < 0.1 µM | < 0.1 µM | CNS(=O)(=O)c1ccc(Nc2ccc(C(F)(F)F)cc2)c(-c2cn(C)cn2)c1 [I-82, N-Methyl-3-(1-methyl-1H-imidazol-4-yl)-4-((4-(trifluoromethyl)phenyl)amino)benzenesulfonamide] | – | –
22 | < 0.1 µM | < 0.1 µM | CNS(=O)(=O)c1ccc(NCc2ccccc2)c(-c2cn(C3CC3)cn2)c1 [I-51, 4-(Benzylamino)-3-(1-cyclopropylimidazol-4-yl)-N-methyl-benzenesulfonamide] | – | –
23 | 0.1 to 0.5 µM | > 0.5 µM | Cn1cnc(-c2cc(S(C)(=O)=O)ccc2NCc2ccccc2)c1 [I-44, N-Benzyl-2-(1-methylimidazol-4-yl)-4-methylsulfonyl-aniline] | – | –
24 | 0.1 to 0.5 µM | 0.1 to 0.5 µM | CNS(=O)(=O)c1ccc(N[C@H](C)c2ccc(C(F)(F)F)cc2)c(-c2cn(C)cn2)c1 [I-56, N-Methyl-3-(1-methylimidazol-4-yl)-4-[[(1R)-1-[4-(trifluoromethyl)phenyl]ethyl]amino]benzenesulfonamide] | – | –
25 | < 0.1 µM | < 0.1 µM | CNS(=O)(=O)c1ccc(Nc2ccc(C(F)(F)F)cn2)c(-c2cn(C(C)C)cn2)c1 [I-85, 3-(1-isopropylimidazol-4-yl)-N-methyl-4-[[5-(trifluoromethyl)-2-pyridyl]amino]benzenesulfonamide] | – | –
26 | < 0.1 µM | < 0.1 µM | CNS(=O)(=O)c1ccc(Nc2cc(C(F)(F)F)ccn2)c(-c2cn(C3CC3)cn2)c1 [I-54, 3-(1-Cyclopropylimidazol-4-yl)-N-methyl-4-[[4-(trifluoromethyl)-2-pyridyl]amino]benzenesulfonamide] | – | –
27 | 0.1 to 0.5 µM | > 0.5 µM | CNS(=O)(=O)c1ccc(NCc2ccc(C(F)(F)F)nc2)c(-c2cn(C)cn2)c1 [I-76, N-Methyl-3-(1-methyl-1H-imidazol-4-yl)-4-(((6-(trifluoromethyl)pyridin-3-yl)methyl)amino)benzenesulfonamide] | – | –
28 | < 0.1 µM | < 0.1 µM | CNS(=O)(=O)c1ccc(Nc2ccc(C(F)(F)F)cn2)c(-c2cn(C3CCC3)cn2)c1 [I-67, 3-(1-Cyclobutylimidazol-4-yl)-N-methyl-4-[[5-(trifluoromethyl)-2-pyridyl]amino]benzenesulfonamide] | – | –
29 | < 0.1 µM | – | CNS(=O)(=O)c1ccc(Nc2ccc(C(F)(F)F)cn2)c(-c2cn(C3CC3)cn2)c1 [I-87, 3-(1-Cyclopropylimidazol-4-yl)-N-methyl-4-[[5-(trifluoromethyl)-2-pyridyl]amino]benzenesulfonamide] | – | –
